The NIST ThermoML archive (doi:10.1016/j.jct.2018.12.022)
Numbers after ± are expanded uncertainties.

What was measured:
[1] = 298.15 K, 101.33 kPa, Liquid
[2] = refractive index (Na D-line) (dimensionless); settings: 298.15 K; 101.33 kPa; Liquid; Standard Abbe refractometry

- viscosity ([1]; Falling or rolling sphere viscometry): 715 ± 70 mPa·s
- mass density ([1]; Vibrating tube method): 1122.56 ± 1.1 kg/m3
- refractive index [2]: 1.4868 ± 0.0006
SMILES: C[C@H](N)C(=O)[O-].C[N+](C)(C)CCO [2-hydroxy-N,N,N-trimethylethanaminium L-alaninate]
